Laboratory results published in article PMC3783656 (Bioorganic & medicinal chemistry letters, 2013).
pEC50, pIC50: −log10 of the molar value. Converted amounts (≈) assume the structure as drawn. Where two headings read alike, the source gives them in different places.

Tests used:
[1] = system: human melanoma A375 cell line; assay: MTT assay against A375 melanoma cells; type: cell-based
442 kinases = assay: DiscoverRX KINOMEscan analysis of 442 kinases; type: binding; details: 10 μM, KINOMEscan of 442 kinases
CK1δ [2] = molecular target: T1, CK1δ (Homo sapiens, UniProt P48730); assay: CK1δ inhibition, Reaction Biology Corp.; type: biochemical; details: for pIC50: read-out: IC50 CK1δ
T1 sequence (P48730 whole entry): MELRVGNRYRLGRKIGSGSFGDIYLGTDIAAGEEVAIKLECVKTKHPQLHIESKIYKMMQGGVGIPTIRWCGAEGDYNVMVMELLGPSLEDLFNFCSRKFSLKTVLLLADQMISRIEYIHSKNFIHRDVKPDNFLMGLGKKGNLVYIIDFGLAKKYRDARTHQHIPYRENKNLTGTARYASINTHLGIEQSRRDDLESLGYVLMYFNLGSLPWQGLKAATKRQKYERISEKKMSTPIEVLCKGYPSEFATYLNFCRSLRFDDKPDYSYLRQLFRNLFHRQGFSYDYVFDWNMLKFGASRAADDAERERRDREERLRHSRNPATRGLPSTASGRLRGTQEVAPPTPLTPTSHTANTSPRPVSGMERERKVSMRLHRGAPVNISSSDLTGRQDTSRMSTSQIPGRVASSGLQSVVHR

CK1 [3] = details: cited from earlier work
CK1 [4] = details: cited from earlier work; remark: listed apart in the source
[5] = Microsome stability, rat liver microsomes
[6] = Solubility in DMEM/10% FBS; type: physicochemical
CK1ε = CK1ε (Homo sapiens, UniProt P49674); assay: CK1ε inhibition, Reaction Biology Corporation; type: biochemical
Sequence of CK1ε (P49674 whole entry): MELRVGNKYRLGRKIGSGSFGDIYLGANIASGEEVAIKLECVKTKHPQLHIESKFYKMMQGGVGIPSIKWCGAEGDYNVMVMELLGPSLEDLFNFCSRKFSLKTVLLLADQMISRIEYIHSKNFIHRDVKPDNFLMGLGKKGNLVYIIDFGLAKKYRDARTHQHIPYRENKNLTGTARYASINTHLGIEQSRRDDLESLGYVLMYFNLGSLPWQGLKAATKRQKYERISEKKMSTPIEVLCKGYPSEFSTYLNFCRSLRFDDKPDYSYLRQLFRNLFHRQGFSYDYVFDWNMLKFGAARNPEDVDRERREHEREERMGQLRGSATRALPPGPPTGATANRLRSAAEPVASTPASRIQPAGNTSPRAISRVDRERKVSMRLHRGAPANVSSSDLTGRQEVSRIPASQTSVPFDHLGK

[7] = Microsome stability, mouse liver microsomes
[8] = Microsome stability, human liver microsomes
cytochrome P450 1A2 = cytochrome P450 1A2 (Homo sapiens, UniProt P05177); assay: Cyp assay, 1A2; type: in vitro ADME; details: at 10 μM
Sequence of cytochrome P450 1A2 (P05177 whole entry, species assumed): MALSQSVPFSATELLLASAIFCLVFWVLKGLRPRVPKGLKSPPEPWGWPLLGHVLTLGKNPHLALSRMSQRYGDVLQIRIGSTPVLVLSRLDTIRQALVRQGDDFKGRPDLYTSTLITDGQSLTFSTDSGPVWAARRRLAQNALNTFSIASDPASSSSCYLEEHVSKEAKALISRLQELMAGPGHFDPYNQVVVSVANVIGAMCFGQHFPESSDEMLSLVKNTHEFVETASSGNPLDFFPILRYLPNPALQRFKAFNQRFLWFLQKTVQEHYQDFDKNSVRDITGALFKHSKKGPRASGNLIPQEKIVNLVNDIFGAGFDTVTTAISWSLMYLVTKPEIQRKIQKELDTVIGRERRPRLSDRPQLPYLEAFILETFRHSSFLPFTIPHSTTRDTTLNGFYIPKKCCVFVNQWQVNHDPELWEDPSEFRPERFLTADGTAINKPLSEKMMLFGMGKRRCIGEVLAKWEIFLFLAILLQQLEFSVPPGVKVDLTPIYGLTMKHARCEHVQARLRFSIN

Mouse PK studies = type: in vivo; details: IV dosing, 1 mg/kg, 10/10/80 DMSO/Tween/water
Solubility in PBS buffer = type: physicochemical
CK1δ [9] = molecular target: T1, CK1δ; assay: CK1δ inhibition, in-house kinase inhibition assay; type: biochemical; details: read-out: IC50 CK1δ
[10] = read-out: MTT assay A375 EC50, human A375 melanoma cell line
[11] = data obtained by Reaction Biology Corp.

## Nc1nccc(-c2c(-c3ccc(F)cc3)ncn2C2CCCCC2)n1 [PF-670462, reference compound]
[1]; [10]
  pEC50: < 5.00
442 kinases
  Number of kinases inhibited ≥90%: 44

## O=[N+]([O-])c1cccc2[nH]c(CNc3nc(N4CCOCC4)nc4c3ncn4-c3ccoc3)nc12 [SR-2007]
CK1δ [2]; [11]
  pIC50: 7.72

## CC[C@H](CO)Nc1nc(Nc2cccc(-c3ccccn3)c2)c2ncn(C(C)C)c2n1 [(R)-DRF053]
CK1 [3]; read-out: CK1 inhibition, dual CK1/CDK inhibitor
  pIC50: 7.85

## CS(=O)(=O)c1ccc2[nH]c(CNc3nc(N4CCOCC4)nc4c3ncn4-c3ccsc3)nc2c1 [SR-2797]
CK1δ [2]; [11]
  pIC50: 8.00

## Fc1ccc2[nH]c(CNc3nc(N4CCOCC4)nc4c3ncn4-c3ccsc3)nc2c1 [SR-1275]
CK1δ [2]; [11]
  pIC50: 7.30

## NC(=O)c1ccc(-c2nc(-c3ccc4c(c3)OCCO4)c(-c3ccccn3)[nH]2)cc1 [Compound D4476]
[1]; [10]
  pEC50: 5.00
CK1 [4]; cell-based assays
  Activity in cell-based assays: 20 to 50 µM
CK1 [3]; read-out: CK1 inhibition in vitro, in vitro
  pIC50: […]

## Clc1ccc2[nH]c(CNc3nc(N4CCOCC4)nc4c3ncn4-c3ccsc3)nc2c1 [SR-1274]
CK1δ [2]; [11]
  pIC50: 6.98

## c1ccc2[nH]c(CNc3nc(N4CCOCC4)nc4c3ncn4-c3ccsc3)nc2c1 [SR-653234]
[1]; [10]
  pEC50: 6.95
[5]; rat liver microsomes, second value of h/r/m
  Microsome stability T1/2 (rat): 6 min
CK1δ [2]; [11]
  pIC50: 6.80
[6]
  Solubility: 28 µM (≈ 12.1 µg/mL)
CK1ε; read-out: CK1ε Inh IC50, data obtained by Reaction Biology Corporation
  pIC50: 6.27
[7]; mouse liver microsomes, third value of h/r/m
  Microsome stability T1/2 (mouse): 1 min
[8]; human liver microsomes, first value of h/r/m
  Microsome stability T1/2 (human): 11 min
Cytochrome P450 1A2
  Inhibition of 1A2: e 86% Inhibition of 1A2 at 10 μM.
Mouse PK studies
  AUC: 1.75 µM·h
  Cl: 2.2 mL/min/kg
  Cmax: 3.2 µM
  T1/2: 43.8 min

## FC(F)(F)c1ccc2[nH]c(CNc3nc(N4CCOCC4)nc4c3ncn4-c3ccsc3)nc2c1 [SR-1273]
CK1δ [2]; [11]
  pIC50: 7.89

## Clc1ccc2[nH]c(CNc3nc(N4CCNCC4)nc4c3ncn4-c3ccsc3)nc2c1 [SR-2876]
Solubility in PBS buffer
  Solubility: 54 µM (≈ 25.2 µg/mL)
CK1δ [9]
  pIC50: 7.29

## c1ccc2[nH]c(CNc3nc(N4CCOCC4)nc4c3ncn4C3CCCC3)nc2c1 [SR-2149]
CK1δ [2]; [11]
  pIC50: 7.24

## CC1CN(c2nc(NCc3nc4ccccc4[nH]3)c3ncn(-c4ccsc4)c3n2)CCN1 (stereo not drawn) [SR-2915]
CK1δ [9]
  pIC50: 6.70

## COc1cc(OC)c(C=C2C(O)=Nc3ccccc32)c(OC)c1 [IC261]
CK1 [4]; read-out: IC50 for CK1 inhibition in cells, in cells
  pIC50: 4.60
CK1 [3]; read-out: IC50 for CK1 inhibition in vitro, in vitro
  pIC50: 6.00

## c1ccc2[nH]c(CNc3nc(N4CCNCC4)nc4c3ncn4-c3ccsc3)nc2c1 [SR-1292]
Solubility in PBS buffer
  Solubility: 75 µM (≈ 32.4 µg/mL)
CK1δ [2]; [11]
  pIC50: 8.52

## O=[N+]([O-])c1ccc2[nH]c(CNc3nc(N4CCOCC4)nc4c3ncn4-c3ccsc3)nc2c1 [SR-1278]
CK1δ [2]; [11]
  pIC50: 7.68

## CCN(CC)CCNC(=O)c1c(C)[nH]c(/C=C2\C(=O)Nc3ccc(F)cc32)c1C [Sunitinib, sunitinib, reference compound]
[5]; rat, liver microsomes
  half-life: 21 min
[7]; mouse, liver microsomes
  half-life: 21 min
[8]; human, liver microsomes
  half-life: 54 min

## O=[N+]([O-])c1cccc2[nH]c(CNc3nc(N4CCOCC4)nc4c3ncn4-c3cccc(F)c3)nc12 [SR-2364]
CK1δ [9]
  pIC50: 7.24

## NCCNS(=O)(=O)c1ccc(Cl)c2ccncc12 [CKI-7]
CK1 [3]; read-out: CK1 inhibition
  pIC50: 5.22

## CN1CCN(c2nc(NCc3nc4ccccc4[nH]3)c3ncn(-c4ccsc4)c3n2)CC1 [SR-1294]
CK1δ [2]; [11]
  pIC50: 7.96

## FC(F)(F)c1cccc2[nH]c(CNc3nc(N4CCOCC4)nc4c3ncn4-c3ccsc3)nc12 [SR-1272]
CK1δ [2]; [11]
  pIC50: 6.89

## O=[N+]([O-])c1cccc2[nH]c(CNc3nc(N4CCOCC4)nc4c3ncn4-c3cc(F)cc(F)c3)nc12 [SR-2368]
CK1δ [9]
  pIC50: 7.12

## CS(=O)(=O)c1cccc2[nH]c(CNc3nc(N4CCOCC4)nc4c3ncn4-c3ccsc3)nc12 [SR-2805]
CK1δ [2]; [11]
  pIC50: 7.80

## CC(C)(C)c1cc(NC(=O)Nc2ccc(-c3cn4c(n3)sc3cc(OCCN5CCOCC5)ccc34)cc2)no1 [AC220, reference compound]
[1]; Homo sapiens, A-375, read-out: MTT assay A375 EC50
  pEC50: 5.80
CK1δ [2]
  Activity against CK1δ: inactive
CK1ε
  Activity against CK1ε: inactive

## COc1ccc2[nH]c(CNc3nc(N4CCOCC4)nc4c3ncn4-c3ccsc3)nc2c1 [SR-1279]
CK1δ [2]; [11]
  pIC50: 7.77

## N#Cc1ccc2[nH]c(CNc3nc(N4CCOCC4)nc4c3ncn4-c3ccsc3)nc2c1 [SR-1276]
CK1δ [2]; [11]
  pIC50: 7.96

## O=[N+]([O-])c1cccc2[nH]c(CNc3nc(N4CCOCC4)nc4c3ncn4-c3ccc(F)cc3)nc12 [SR-2362]
CK1δ [2]; [11]
  IC50 CK1δ: essentially inactive
  pIC50: < 6.00

## Clc1ccc2[nH]c(CNc3nc(N4CCOCC4)nc4c3ncn4-c3ccoc3)nc2c1 [SR-2850]
CK1δ [2]; [11]
  pIC50: 7.64

## O=C(Nc1nc2ccc(C(F)(F)F)cc2[nH]1)c1csc(NC(=O)c2ccccc2OC(F)(F)F)n1 [Bischof-5, reference compound]
[1]; [10]
  pEC50: 5.64

## NC1CCN(c2nc(NCc3nc4cc(Cl)ccc4[nH]3)c3ncn(-c4ccsc4)c3n2)CC1 [SR-2875]
CK1δ [9]
  pIC50: 6.92
